Results reported in ChEMBL document CHEMBL1152560, “Substituted 2-arylbenzothiazoles as kinase inhibitors: hit-to-lead optimization” (Bioorg Med Chem, 2009).

Experiments:
[1] = molecular target: T1, G protein-coupled receptor kinase 3 (Homo sapiens) (UniProt P35626); assay: Residual activity of GRK3 at 10 uM by microplate scintillation counting
T1 sequence (whole entry): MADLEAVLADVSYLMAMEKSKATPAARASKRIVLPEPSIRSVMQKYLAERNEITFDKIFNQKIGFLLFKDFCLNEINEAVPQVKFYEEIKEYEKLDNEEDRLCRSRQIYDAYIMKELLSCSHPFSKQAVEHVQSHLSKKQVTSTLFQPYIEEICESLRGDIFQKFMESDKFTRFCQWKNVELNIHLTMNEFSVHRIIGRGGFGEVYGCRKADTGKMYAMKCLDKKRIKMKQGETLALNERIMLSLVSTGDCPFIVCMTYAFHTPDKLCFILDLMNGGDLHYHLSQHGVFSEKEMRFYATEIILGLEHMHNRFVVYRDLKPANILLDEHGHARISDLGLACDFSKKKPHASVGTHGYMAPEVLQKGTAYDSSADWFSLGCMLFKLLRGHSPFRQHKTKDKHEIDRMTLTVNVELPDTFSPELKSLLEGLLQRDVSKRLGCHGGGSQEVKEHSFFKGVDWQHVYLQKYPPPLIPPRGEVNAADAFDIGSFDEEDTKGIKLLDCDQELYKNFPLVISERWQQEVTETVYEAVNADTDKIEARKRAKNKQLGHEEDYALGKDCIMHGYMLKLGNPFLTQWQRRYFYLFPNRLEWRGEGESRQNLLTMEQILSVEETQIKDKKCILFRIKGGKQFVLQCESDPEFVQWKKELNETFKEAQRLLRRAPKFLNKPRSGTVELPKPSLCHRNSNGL

[2] = molecular target: T2, Cytoplasmic tyrosine-protein kinase BMX (Homo sapiens) (UniProt P51813); assay: Residual activity of BMX at 1 uM by microplate scintillation counting
T2 sequence (whole entry): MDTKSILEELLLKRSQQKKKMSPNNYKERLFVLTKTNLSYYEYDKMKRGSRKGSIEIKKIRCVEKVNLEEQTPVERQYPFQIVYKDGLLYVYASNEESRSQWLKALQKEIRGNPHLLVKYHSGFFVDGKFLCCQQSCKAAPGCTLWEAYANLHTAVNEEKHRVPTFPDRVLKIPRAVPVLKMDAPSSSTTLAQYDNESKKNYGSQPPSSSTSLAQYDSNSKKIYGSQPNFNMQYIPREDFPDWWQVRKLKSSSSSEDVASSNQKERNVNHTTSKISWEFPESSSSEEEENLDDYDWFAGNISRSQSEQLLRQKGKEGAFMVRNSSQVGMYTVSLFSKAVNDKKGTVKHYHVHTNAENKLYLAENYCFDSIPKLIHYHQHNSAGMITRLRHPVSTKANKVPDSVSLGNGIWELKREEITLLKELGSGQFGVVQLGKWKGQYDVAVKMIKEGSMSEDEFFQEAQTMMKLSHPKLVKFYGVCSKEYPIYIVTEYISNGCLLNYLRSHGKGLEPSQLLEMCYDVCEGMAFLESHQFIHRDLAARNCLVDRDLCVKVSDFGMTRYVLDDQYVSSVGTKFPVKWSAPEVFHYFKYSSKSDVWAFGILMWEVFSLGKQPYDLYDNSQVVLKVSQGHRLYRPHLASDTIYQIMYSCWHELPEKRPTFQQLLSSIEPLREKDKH

[3] = molecular target: T3, Tyrosine-protein kinase JAK3 (Homo sapiens) (UniProt P52333); assay: Residual activity of JAK3 at 10 uM by microplate scintillation counting
T3 sequence (whole entry): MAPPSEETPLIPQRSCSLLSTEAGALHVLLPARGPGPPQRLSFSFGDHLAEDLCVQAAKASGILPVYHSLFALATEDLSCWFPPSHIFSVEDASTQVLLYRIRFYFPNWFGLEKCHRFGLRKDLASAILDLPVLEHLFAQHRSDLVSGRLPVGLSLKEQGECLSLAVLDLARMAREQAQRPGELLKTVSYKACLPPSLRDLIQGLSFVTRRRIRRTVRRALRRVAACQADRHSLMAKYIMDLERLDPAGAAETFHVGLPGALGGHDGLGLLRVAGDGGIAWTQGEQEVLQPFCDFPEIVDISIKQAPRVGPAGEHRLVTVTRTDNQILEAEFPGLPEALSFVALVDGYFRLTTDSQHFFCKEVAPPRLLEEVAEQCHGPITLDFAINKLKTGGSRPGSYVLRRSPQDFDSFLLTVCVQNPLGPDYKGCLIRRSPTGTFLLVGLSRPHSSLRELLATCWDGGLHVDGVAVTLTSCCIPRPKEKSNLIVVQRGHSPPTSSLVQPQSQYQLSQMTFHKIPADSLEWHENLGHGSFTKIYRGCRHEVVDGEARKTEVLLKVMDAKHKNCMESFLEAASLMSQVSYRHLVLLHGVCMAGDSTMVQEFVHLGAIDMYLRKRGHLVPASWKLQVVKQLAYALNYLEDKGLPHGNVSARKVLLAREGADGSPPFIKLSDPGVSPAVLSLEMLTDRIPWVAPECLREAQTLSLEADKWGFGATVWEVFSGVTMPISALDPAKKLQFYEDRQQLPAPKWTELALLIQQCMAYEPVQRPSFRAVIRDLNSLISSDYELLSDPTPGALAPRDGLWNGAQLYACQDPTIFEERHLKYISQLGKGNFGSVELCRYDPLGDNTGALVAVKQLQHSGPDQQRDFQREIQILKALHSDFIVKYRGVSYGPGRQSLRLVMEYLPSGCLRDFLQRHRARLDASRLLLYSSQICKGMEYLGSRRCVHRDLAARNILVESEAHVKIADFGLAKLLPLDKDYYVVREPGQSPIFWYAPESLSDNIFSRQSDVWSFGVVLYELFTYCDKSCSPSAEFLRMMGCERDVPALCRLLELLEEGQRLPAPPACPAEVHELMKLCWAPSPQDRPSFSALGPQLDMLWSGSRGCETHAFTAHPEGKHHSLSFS

[4] = molecular target: Calcium/calmodulin-dependent protein kinase type II subunit beta (Homo sapiens) (UniProt Q13554); assay: Residual activity of CAMK2B at 10 uM by microplate scintillation counting
[5] = molecular target: CDK8/Cyclin C (Homo sapiens) (UniProt P49336+P24863); assay: Residual activity of CDK8/Cyclin C at 10 uM by microplate scintillation counting; type: protein-complex assay
[6] = test system: T4, Dual specificity mitogen-activated protein kinase kinase 6 (Homo sapiens), P52564 [S207D,T211D]; assay: Residual activity of MKK6 S207D/T211D mutant at 1 uM by microplate scintillation counting
T4 sequence (whole entry): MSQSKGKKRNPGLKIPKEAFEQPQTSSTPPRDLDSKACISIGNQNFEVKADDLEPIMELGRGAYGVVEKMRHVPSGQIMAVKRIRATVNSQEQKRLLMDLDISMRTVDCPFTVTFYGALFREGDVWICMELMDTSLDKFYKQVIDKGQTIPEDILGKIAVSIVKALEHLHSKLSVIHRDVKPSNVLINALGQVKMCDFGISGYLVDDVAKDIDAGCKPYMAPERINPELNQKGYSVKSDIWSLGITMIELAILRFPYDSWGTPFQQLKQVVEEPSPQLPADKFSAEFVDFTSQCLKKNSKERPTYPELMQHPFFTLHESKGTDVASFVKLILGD

Calcium/calmodulin-dependent protein kinase type II subunit beta (Homo sapiens), sequence (Q13554 whole entry): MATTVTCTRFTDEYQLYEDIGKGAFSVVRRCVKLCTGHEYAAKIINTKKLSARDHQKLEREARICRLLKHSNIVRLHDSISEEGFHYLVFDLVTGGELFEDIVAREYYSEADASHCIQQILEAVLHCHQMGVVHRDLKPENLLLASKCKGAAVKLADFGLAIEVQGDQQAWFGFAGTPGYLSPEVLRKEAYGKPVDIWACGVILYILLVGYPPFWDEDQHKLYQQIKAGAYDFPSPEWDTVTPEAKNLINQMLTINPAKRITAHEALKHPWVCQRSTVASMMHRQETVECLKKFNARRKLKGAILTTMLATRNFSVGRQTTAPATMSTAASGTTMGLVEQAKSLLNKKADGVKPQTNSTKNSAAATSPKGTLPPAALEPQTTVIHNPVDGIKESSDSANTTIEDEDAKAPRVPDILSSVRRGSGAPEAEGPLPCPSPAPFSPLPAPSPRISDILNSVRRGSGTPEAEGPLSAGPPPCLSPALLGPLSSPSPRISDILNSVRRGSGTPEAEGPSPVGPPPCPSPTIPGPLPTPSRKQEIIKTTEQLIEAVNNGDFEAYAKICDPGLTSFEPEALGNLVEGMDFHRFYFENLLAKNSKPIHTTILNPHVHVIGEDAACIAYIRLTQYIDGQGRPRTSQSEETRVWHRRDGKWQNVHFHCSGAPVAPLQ

SMILES | residual activity [1] [%] | residual activity [2] [%] | residual activity [3] [%] | residual activity [4] [%] | residual activity [5] [%] | residual activity [6] [%]
COc1cc2c(Oc3ccc(-c4nc5ccccc5s4)cc3F)ncnc2cc1OCCCN1CCN(C)CC1 | 125 | 128 | 53 | 58 | 75 | 103
COc1cc2c(Oc3ccc(-c4nc5ccccc5s4)cc3)ncnc2cc1OCCCN1CCCC1 | 110 | 127 | 68 | 56 | 82 | 100
COc1cc2c(Oc3ccc(-c4nc5ccccc5s4)cc3)ncnc2cc1OCCCN1CCN(C)CC1 | 135 | 122 | 63 | 67 | 88 | 84
